Test results: PubChem BioAssay AID248 (DTP/NCI, 2004)
Several values for one entry are separate records, joined by “and”; a condition that tells them apart may be missing. Identical values can stand only once. Inconclusive results and toxic doses are left out.

Test system: L1210 leukemia ip in BDF1 mice, survival T/C
Assay: NCI In Vivo Anticancer Drug Screen. Data for tumor model L1210 Leukemia (intraperitoneal) in B6D2F1 (BDF1) mice
Settings: endpoint: mean survival time, higher = longer survival
Procedure, shortened: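 In this screen, tumor-bearing mice given compound are compared to those given vehicle, and their survival values are reported as a treated-to-control quotient.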

[1] = dose: 100.0 mg/kg/injection, schedule: Q04DX003 (ip), vehicle: Klucel (hydroxypropylcellulose) (HPC)
[2] = dose: 200.0 mg/kg/injection, schedule: Q04DX003 (ip), vehicle: Klucel (hydroxypropylcellulose) (HPC)
[3] = dose: 400.0 mg/kg/injection, schedule: Q04DX003 (ip), vehicle: Klucel (hydroxypropylcellulose) (HPC)
[4] = dose: 200.0 mg/kg/injection, schedule: Q04DX002 (ip), vehicle: saline with Tween-80
[5] = dose: 400.0 mg/kg/injection, schedule: Q04DX002 (ip), vehicle: saline with Tween-80
[6] = dose: 100.0 mg/kg/injection, schedule: Q01DX001 (ip), vehicle: saline
[7] = dose: 200.0 mg/kg/injection, schedule: Q01DX001 (ip), vehicle: saline
[8] = dose: 100.0 mg/kg/injection, schedule: Q01DX001 (ip), vehicle: carboxymethylcellulose (CMC)
[9] = dose: 200.0 mg/kg/injection, schedule: Q01DX001 (ip), vehicle: carboxymethylcellulose (CMC)
[10] = dose: 400.0 mg/kg/injection, schedule: Q01DX001 (ip), vehicle: carboxymethylcellulose (CMC)
[11] = dose: 100.0 mg/kg/injection, schedule: Q01DX009 (ip), vehicle: Klucel (hydroxypropylcellulose) (HPC)
[12] = dose: 75.0 mg/kg/injection, schedule: Q01DX001 (ip), vehicle: carboxymethylcellulose (CMC)

With CN(C)c1ccc(-c2cc(C(=O)O)c3cc(I)ccc3n2)c(Cl)c1 the T/C (dose: 75.0 mg/kg/injection, schedule: Q01DX001 (ip), vehicle: saline) was 88 % of control, the T/C (dose: 150.0 mg/kg/injection, schedule: Q01DX001 (ip), vehicle: saline) was 86 % of control and the T/C (dose: 300.0 mg/kg/injection, schedule: Q01DX001 (ip), vehicle: saline) was 91 % of control.
For Clc1cc(Cl)cc(N=Nc2ccccc2)c1, the T/C [1] was 102 % of control, the T/C [2] was 103 % of control and the T/C [3] was 103 % of control.
CCOC(=O)Nc1cc2c(c(NC(=O)OCC)n1)N=C(C)CN2 (tested in a mixture with another compound) was tested, and the T/C (dose: 100.0 mg/kg/injection, schedule: Q01DX001 (ip), vehicle: saline with Tween-80) was 95 % of control, the T/C (dose: 200.0 mg/kg/injection, schedule: Q01DX001 (ip), vehicle: saline with Tween-80) was 95 % of control and the T/C [4] was 95 % of control. For the same compound, the T/C (dose: 400.0 mg/kg/injection, schedule: Q01DX001 (ip), vehicle: saline with Tween-80) was 95 % of control, the T/C [5] was 103 % of control and the T/C (dose: 600.0 mg/kg/injection, schedule: Q04DX002 (ip), vehicle: saline with Tween-80) was 103 % of control.
In the case of CCC(SC(CC)C(=O)O)C(=O)O (stereo not given), the T/C [6] was 98 % of control and the T/C [7] was 94 % of control.
For OCC1CCCC1, the T/C (dose: 50.0 mg/kg/injection, schedule: Q01DX001 (ip), vehicle: carboxymethylcellulose (CMC)) was 92 % of control, the T/C [8] was 94 % of control and the T/C [9] was 92 % of control. For the same compound, the T/C [10] was 94 % of control.
For O=C(O)CNCc1ccc(Cl)cc1, the T/C (dose: 12.5 mg/kg/injection, schedule: Q01DX009 (ip), vehicle: water) was 104 % of control, the T/C (dose: 25.0 mg/kg/injection, schedule: Q01DX009 (ip), vehicle: water) was 96 % of control and the T/C (dose: 50.0 mg/kg/injection, schedule: Q01DX009 (ip), vehicle: water) was 104 % of control and 91 % of control. The T/C (dose: 100.0 mg/kg/injection, schedule: Q01DX009 (ip), vehicle: water) was 100 % of control, the T/C (dose: 100.0 mg/kg/injection, schedule: Q01DX Z (ip), vehicle: saline) was 111 % of control and the T/C (dose: 100.0 mg/kg/injection, schedule: Q04DX003 (ip), vehicle: water) was 88 % of control. The T/C (dose: 200.0 mg/kg/injection, schedule: Q01DX Z (ip), vehicle: saline) was 100 % of control and the T/C (dose: 200.0 mg/kg/injection, schedule: Q04DX003 (ip), vehicle: water) was 92 % of control.
For CCCC(CNC1CCCCC1)OC(=O)c1ccc(N)cc1 (stereo not given), the T/C (dose: 75.0 mg/kg/injection, schedule: Q01DX001 (ip), vehicle: other) was 96 % of control.
For N=C1SCc2ccccc21, the T/C [11] was 104 % of control.
In the case of CCC1=C/C(=C\c2ccc3c(c2)OCO3)C(=O)S1, the T/C [4] was 89 % of control and the T/C [5] was 89 % of control.
In the case of O=C(Sc1c[nH]c(=O)[nH]c1=O)c1ccc(N(CCCl)CCCl)cc1, the T/C (dose: 25.0 mg/kg/injection, schedule: Q04DX003 (ip), vehicle: Klucel (hydroxypropylcellulose) (HPC)) was 96 % of control, the T/C (dose: 50.0 mg/kg/injection, schedule: Q04DX003 (ip), vehicle: Klucel (hydroxypropylcellulose) (HPC)) was 102 % of control and the T/C [1] was 94 % of control. The T/C [2] was 100 % of control and the T/C [3] was 105 % of control.
CCOC(=O)CCC(NC(=O)c1ccccc1NC)C(=O)OCC (stereo not given) was tested, and the T/C (dose: 100.0 mg/kg/injection, schedule: Q01DX009 (ip), vehicle: saline with Tween-80) was 94 % of control, the T/C (dose: 200.0 mg/kg/injection, schedule: Q01DX009 (ip), vehicle: saline with Tween-80) was 92 % of control and the T/C (dose: 400.0 mg/kg/injection, schedule: Q01DX009 (ip), vehicle: saline with Tween-80) was 101 % of control.
In the case of CCOC(=O)C(C)N1C(=O)c2ccccc2C1=O (stereo not given), the T/C (dose: 100.0 mg/kg/injection, schedule: Q04DX002 (ip), vehicle: Klucel (hydroxypropylcellulose) (HPC)) was 100 % of control, the T/C (dose: 200.0 mg/kg/injection, schedule: Q04DX002 (ip), vehicle: Klucel (hydroxypropylcellulose) (HPC)) was 104 % of control and the T/C (dose: 400.0 mg/kg/injection, schedule: Q04DX002 (ip), vehicle: Klucel (hydroxypropylcellulose) (HPC)) was 100 % of control.
For CN(C(=O)Sc1ccc([N+](=O)[O-])cc1)c1ccccc1, the T/C (dose: 100.0 mg/kg/injection, schedule: Q04DX003 (ip), vehicle: saline with Tween-80) was 91 % of control, the T/C (dose: 200.0 mg/kg/injection, schedule: Q04DX003 (ip), vehicle: saline with Tween-80) was 89 % of control and the T/C (dose: 400.0 mg/kg/injection, schedule: Q04DX003 (ip), vehicle: saline with Tween-80) was 91 % of control.
O=C1C(=O)c2ccccc2C(O)=C1C(C1=C(O)c2ccccc2C(=O)C1=O)c1ccc(Cl)c(Cl)c1 was tested, and the T/C [12] was 94 % of control.
For CC(=O)OCCC/C(=C/c1cc2ccccc2c2ccccc12)[N+](=O)[O-], the T/C [8] was 95 % of control, the T/C [9] was 95 % of control and the T/C [10] was 97 % of control.
In the case of COc1nncc(-c2cnnc(OC)n2)n1, the T/C (dose: 12.5 mg/kg/injection, schedule: Q04DX002 (ip), vehicle: Klucel (hydroxypropylcellulose) (HPC)) was 112 % of control, the T/C (dose: 25.0 mg/kg/injection, schedule: Q04DX002 (ip), vehicle: Klucel (hydroxypropylcellulose) (HPC)) was 105 % of control and the T/C (dose: 50.0 mg/kg/injection, schedule: Q04DX002 (ip), vehicle: Klucel (hydroxypropylcellulose) (HPC)) was 109 % of control.
For COc1c(NC(=O)CC(C)=O)cccc1NC(=O)CC(C)=O, the T/C [11] was 108 % of control, the T/C [1] was 100 % of control and the T/C (dose: 200.0 mg/kg/injection, schedule: Q01DX009 (ip), vehicle: Klucel (hydroxypropylcellulose) (HPC)) was 111 % of control. The T/C [2] was 103 % of control, the T/C (dose: 400.0 mg/kg/injection, schedule: Q01DX009 (ip), vehicle: Klucel (hydroxypropylcellulose) (HPC)) was 97 % of control and the T/C [3] was 94 % of control.
For CC(=O)NC1CCC(Cc2ccccc2)CC1 (stereo not given), the T/C (dose: 100.0 mg/kg/injection, schedule: Q04DX002 (ip), vehicle: saline with Tween-80) was 97 % of control, the T/C [4] was 90 % of control and the T/C [5] was 116 % of control.
For OCC(O)C(O)C(O)C(O)C(c1ccc(Cl)cc1)c1ccc(Cl)cc1 (stereo not given), the T/C (dose: 50.0 mg/kg/injection, schedule: Q01DX001 (ip), vehicle: saline) was 101 % of control and 98 % of control, the T/C [6] was 101 % of control and 93 % of control and 88 % of control and the T/C [7] was 95 % of control and 91 % of control. For the same compound, the T/C (dose: 400.0 mg/kg/injection, schedule: Q01DX001 (ip), vehicle: saline) was 95 % of control and 96 % of control.
For CC(Cc1ccccc1)N(C)CC1C(=O)C2CCC1C2 (stereo not given), the T/C [12] was 102 % of control, the T/C (dose: 150.0 mg/kg/injection, schedule: Q01DX001 (ip), vehicle: carboxymethylcellulose (CMC)) was 96 % of control and the T/C (dose: 300.0 mg/kg/injection, schedule: Q01DX001 (ip), vehicle: carboxymethylcellulose (CMC)) was 96 % of control.
In the case of Nc1nc(N)nc(Nc2ccc([As]=O)cc2)n1 (stereo not given), the T/C (dose: 25.0 mg/kg/injection, schedule: Q01DX009 (ip), vehicle: Klucel (hydroxypropylcellulose) (HPC)) was 112 % of control, the T/C (dose: 50.0 mg/kg/injection, schedule: Q01DX009 (ip), vehicle: Klucel (hydroxypropylcellulose) (HPC)) was 117 % of control and the T/C [11] was 102 % of control.
With O=C(Nc1ccc(C2=NCCN2)cc1)Nc1cc(C(=O)Nc2ccc(C3=NCCN3)cc2)ccc1C(=O)Nc1ccc(C2=NCCN2)cc1 the T/C (dose: 7.5 mg/kg/injection, schedule: Q01DX Z (oral), vehicle: saline) was 107 % of control, the T/C (dose: 15.0 mg/kg/injection, schedule: Q01DX Z (ip), vehicle: saline) was 241 % of control and the T/C (dose: 15.0 mg/kg/injection, schedule: Q01DX Z (oral), vehicle: saline) was 105 % of control. The T/C (dose: 30.0 mg/kg/injection, schedule: Q01DX Z (oral), vehicle: saline) was 103 % of control, the T/C (dose: 60.0 mg/kg/injection, schedule: Q01DX Z (oral), vehicle: saline) was 102 % of control and the T/C (dose: 62.5 mg/kg/injection, schedule: Q01DX010 (oral), vehicle: saline) was 95 % of control. For the same compound, the T/C (dose: 75.0 mg/kg/injection, schedule: Q01DX Z (oral), vehicle: saline) was 95 % of control, the T/C (dose: 125.0 mg/kg/injection, schedule: Q01DX010 (oral), vehicle: saline) was 110 % of control and the T/C (dose: 250.0 mg/kg/injection, schedule: Q01DX010 (oral), vehicle: saline) was 108 % of control. The T/C (dose: 500.0 mg/kg/injection, schedule: Q01DX010 (oral), vehicle: saline) was 97 % of control.
